Measurements as given in patent publication US9303033B2, “Pyrazolopyrimidines and related heterocycles as CK2 inhibitors” (SENHWA BIOSCIENCES, INC., priority 2009, dated 2016).
Like-named read-outs stand apart in the source and are kept apart here.

Assays:
MDAMB453 = assay: Cell proliferation assay with Alamar Blue (AB), MDAMB453; type: cell-based
Method: (§1) A representative cell-proliferation assay protocol using Alamar Blue dye (stored at 4° C., use 20 ul per well) is described hereafter.
(§2) a. Split and trypsinize cells.
(§3) b. Count cells using hemocytometer.
(§4) c. Plate 4,000-5,000 cells per well in 100 μl of medium and seed into a 96-well plate according to the following plate layout. Add cell culture medium only to wells B10 to B12.
(§5) d. Add 100 μl of 2× drug dilution to each well in a concentration shown in the plate layout above. […] Total volume is 200 μl/well.
(§6) e. Incubate four (4) days at 37° C., 5% CO2 in a humidified incubator.
(§7) f. Add […] Alamar Blue reagent to each well.
(§8) g. Incubate for four (4) hours at 37° C., 5% CO2 in a humidified incubator.
(§9) h. Record fluorescence at an excitation wavelength of 544 nm and emission wavelength of 590 nm using a microplate reader.
(§10) In the assays, cells are cultured with a test compound for approximately four days, the dye is then added to the cells and fluorescence of […] dye is detected after approximately four hours. Different types of cells can be utilized in the assays (e.g., HCT-116 human colorectal carcinoma cells, PC-3 human prostatic cancer cells, MDA-MB231 human breast cancer cells, K-562 human chronic myelogenous leukemia (CML) cells, MiaPaca human pancreatic carcinoma cells, MV-4 human acute myeloid leukemia cells, and BxPC3 human pancreatic adenocarcinoma cells).

recombinant human PIM2 = recombinant human PIM2 (Homo sapiens (Human), UniProt Q9P1W9); assay: PIM-2 assay (33P-ATP filter binding); type: biochemical; settings: for PIM2: % inh […]: at […] compound; for IC50: PIM2: IC50 (5 μM ATP), 5 μM ATP
[1] = tested on: BxPC3 human pancreatic adenocarcinoma cells; assay: Cell proliferation assay with Alamar Blue (AB), BxPC3; type: cell-based
Method: as §1, §2, §3, §4, §5, §6, §7, §8, §9, §10

CK2 ααββ = CK2 ααββ (Homo sapiens (Human), UniProt P68400); assay: CK2 assay (cell-free, 33P-ATP, phosphocellulose filter plate); type: biochemical
[2] = MDAMB453 cells, read-out: AB: MDAMB453 IC50
[3] = Homo sapiens, MDA-MB-453, MDAMB453 cells, read-out: AB: MDAMB453
[4] = Homo sapiens, BXPC-3, read-out: AB: BxPC3

Sequence of CK2 ααββ (P68400 whole entry): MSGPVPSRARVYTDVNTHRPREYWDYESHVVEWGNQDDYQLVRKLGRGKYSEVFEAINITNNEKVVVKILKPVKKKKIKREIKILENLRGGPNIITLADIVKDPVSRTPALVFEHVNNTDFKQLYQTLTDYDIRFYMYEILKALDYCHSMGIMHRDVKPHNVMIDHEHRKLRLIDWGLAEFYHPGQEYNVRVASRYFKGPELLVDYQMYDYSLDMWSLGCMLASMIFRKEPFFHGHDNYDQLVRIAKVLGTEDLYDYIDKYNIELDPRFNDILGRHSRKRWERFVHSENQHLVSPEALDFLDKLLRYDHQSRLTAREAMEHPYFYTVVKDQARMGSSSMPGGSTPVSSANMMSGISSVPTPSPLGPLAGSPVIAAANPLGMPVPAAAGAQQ
Sequence of CK2 ααββ (P67870 whole entry partner): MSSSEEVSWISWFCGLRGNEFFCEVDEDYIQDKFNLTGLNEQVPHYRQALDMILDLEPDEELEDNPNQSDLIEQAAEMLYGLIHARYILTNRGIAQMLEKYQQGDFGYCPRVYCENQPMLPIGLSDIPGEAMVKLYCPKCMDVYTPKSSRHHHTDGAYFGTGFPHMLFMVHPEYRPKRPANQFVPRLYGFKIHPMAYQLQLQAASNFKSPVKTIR
Sequence of recombinant human PIM2 (Q9P1W9 whole entry): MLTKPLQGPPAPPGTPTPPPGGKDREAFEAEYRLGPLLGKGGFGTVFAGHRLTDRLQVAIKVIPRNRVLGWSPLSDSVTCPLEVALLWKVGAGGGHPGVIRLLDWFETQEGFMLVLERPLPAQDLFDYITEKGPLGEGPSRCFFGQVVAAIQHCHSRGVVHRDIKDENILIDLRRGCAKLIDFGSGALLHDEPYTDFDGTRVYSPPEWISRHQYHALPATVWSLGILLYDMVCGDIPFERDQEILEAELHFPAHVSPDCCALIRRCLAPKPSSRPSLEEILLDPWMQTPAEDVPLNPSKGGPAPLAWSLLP

SMILES	IC50 (MDAMB453; [2])	PIM2: % inh […] (recombinant human PIM2)	IC50 ([1]; read-out: AB: BxPC3 IC50)	IC50 (CK2 ααββ)	IC50 (MDAMB453; [3])	IC50 (recombinant human PIM2)	IC50 [1, 4]
Cc1c(Nc2ccc(-n3cccn3)cc2)nc2c(/C=C3\NC(=O)NC3=O)cnn2c1NC1CC1 [Example E46]	16600 nM	49.545%	20900 nM	< 100 nM	–	–	–
O=C1NC(=O)/C(=C/c2cnn3c(NC4CC4)cc(-c4ccc(F)c(C(=O)N5CCOCC5)c4)nc23)N1 [Example F5]	–	–	–	< 10 nM	948 nM	> 2500 nM	1810 nM
O=C1NC(=O)/C(=C/c2cnn3c(Nc4cccc(C(=O)N5CCNCC5)c4)cc(Nc4cccc(Cl)c4)nc23)N1 [Example F7]	–	–	–	< 10 nM	1590 nM	1230 nM	14000 nM
CC1CN(C(C)c2cccc(Nc3cc(NC4CC4)n4ncc(/C=C5\NC(=O)NC5=O)c4n3)c2)CC(C)O1 (stereo not drawn) [Example G1]	–	–	–	< 10 nM	10000 nM	> 2500 nM	> 30000 nM
O=C1NC(=O)/C(=C/c2cnn3c(NC4CC4)cc(Nc4ccc(Cl)c(C(F)(F)F)c4)nc23)N1 [Example H1]	–	–	–	< 10 nM	991 nM	> 2500 nM	3210 nM
O=C1NC(=O)/C(=C/c2cnn3c(NC4CC4)cc(-c4cccc(OCC(=O)N5CCCC5)c4)nc23)N1 [Example H4]	–	–	–	< 10 nM	1960 nM	> 2500 nM	14500 nM
O=C1NC(=O)/C(=C/c2cnn3c(NCc4cccnc4)cc(Nc4cccc(Cl)c4)nc23)N1 [Example I6]	–	–	–	< 1000 nM	708 nM	704 nM	2560 nM
O=C1NC(=O)/C(=C/c2cnn3c(NC4CC4)cc(Nc4cccc(C(F)(F)F)c4)nc23)N1 [Example J1]	–	–	–	< 10 nM	7120 nM	2480 nM	3920 nM
O=C1NC(=O)/C(=C/c2cnn3c(NC4CC4)cc(-c4cccc(F)c4)nc23)N1 [Example J4]	–	–	–	< 10 nM	4750 nM	867 nM	> 30000 nM
NCc1cccc(-c2cc(NC3CC3)n3ncc(/C=C4\SC(=O)NC4=O)c3n2)c1 [Example J5]	–	–	–	< 1000 nM	> 30000 nM	198 nM	19000 nM
COc1ccc(Nc2cc(NC3CC3)n3ncc(/C=C4\NC(=O)NC4=O)c3n2)cc1Cl [Example K1]	–	–	–	< 10 nM	7710 nM	> 2500 nM	5660 nM
Nc1cc(NC2CC2)n2ncc(/C=C3\NC(=O)NC3=O)c2n1 [Example K2]	–	–	–	< 10 nM	11800 nM	> 2500 nM	9930 nM
O=C1NC(=O)/C(=C/c2cnn3c(NC4CC4)cc(-c4cccc(OCC5=NCCN5)c4)nc23)N1 [Example K4]	–	–	–	< 100 nM	1940 nM	1310 nM	2580 nM
O=C1NC(=O)/C(=C/c2cnn3c(NC4CCN(C(=O)C5CC5)CC4)cc(Nc4cccc(Cl)c4)nc23)N1 [Example L5]	–	–	–	< 10 nM	993 nM	> 2500 nM	2400 nM
O=C1NC(=O)/C(=C/c2cnn3c(NC4CC4)cc(-c4cccc(CN5CCOCC5)c4)nc23)N1 [Example M4]	–	–	–	< 10 nM	> 30000 nM	1250 nM	14400 nM
CC(C)(C)C(=O)N1CCC(Nc2cc(Nc3cccc(Cl)c3)nc3c(/C=C4\NC(=O)NC4=O)cnn23)CC1 [Example M5]	–	–	–	< 100 nM	874 nM	> 2500 nM	10000 nM
COC(=O)Nc1cc(NC2CC2)n2ncc(/C=C3\NC(=O)NC3=O)c2n1 [Example N2]	–	–	–	< 10 nM	3040 nM	845 nM	9180 nM
O=C1NC(=O)/C(=C/c2cnn3c(NC4CC4)cc(-c4cccc(C(F)(F)F)c4)nc23)N1 [Example N4]	–	–	–	< 10 nM	> 30000 nM	> 2500 nM	12500 nM
CN(C)C(=O)N1CCC(Nc2cc(Nc3cccc(Cl)c3)nc3c(/C=C4\NC(=O)NC4=O)cnn23)CC1 [Example N5]	–	–	–	< 100 nM	1570 nM	> 2500 nM	17400 nM
O=C1NC(=O)/C(=C/c2cnn3c(NC4CC4)cc(NC4CCCC4)nc23)N1 [Example O2]	–	–	–	< 10 nM	4510 nM	> 2500 nM	10400 nM
O=C1NC(=O)/C(=C/c2cnn3c(NC4CC4)cc(N4CC[C@@H](F)C4)nc23)N1 [Example P2]	–	–	–	< 10 nM	660 nM	708 nM	2120 nM
CN(C)c1ccc(-c2cc(NC3CC3)n3ncc(/C=C4\NC(=O)NC4=O)c3n2)cn1 [Example P4]	–	–	–	< 10 nM	5280 nM	75.4 nM	549 nM
O=C1NC(=O)/C(=C/c2cnn3c(NC4CCN(CCO)CC4)cc(Nc4cccc(Cl)c4)nc23)N1 [Example P5]	–	–	–	< 100 nM	825 nM	> 2500 nM	16500 nM
O=C1NC(=O)/C(=C/c2cnn3c(NCC4CC4)cc(NN4CCOCC4)nc23)N1 [Example Q2]	–	–	–	< 10 nM	154 nM	284 nM	5370 nM
O=C1NC(=O)/C(=C/c2cnn3c(NC4CC4)cc(-c4ccncc4)nc23)N1 [Example Q4]	–	–	–	< 10 nM	1070 nM	256 nM	745 nM

Now from value to molecule:

IC50 (MDAMB453; [2])	PIM2: % inh […] (recombinant human PIM2)	IC50 ([1]; read-out: AB: BxPC3 IC50)	IC50 (CK2 ααββ)	IC50 (MDAMB453; [3])	IC50 (recombinant human PIM2)	IC50 [1, 4]	SMILES
1290 nM	−72.498%	1970 nM	< 100 nM	–	–	–	CN1C(=O)NC(=Cc2cnn3c(NC4CC4)cc(Nc4ccc(C#N)c(Cl)c4)nc23)C1=O [Example E42]
–	–	–	< 10 nM	2040 nM	> 2500 nM	5760 nM	COc1cccc(Nc2cc(NC3CC3)n3ncc(/C=C4\NC(=O)NC4=O)c3n2)c1 [Example F1]
–	–	–	< 10 nM	1300 nM	> 2500 nM	6590 nM	O=C1NC(=O)/C(=C/c2cnn3c(NC4CC4)cc(-c4cccc(OCC5CC5)c4)nc23)N1 [Example F4]
29100 nM	−17.549%	> 30000 nM	< 100 nM	–	–	–	CN1C(=O)NC(=Cc2cnn3c(NC4CC4)cc(Nc4ccccc4F)nc23)C1=O [Example F42]
–	–	–	< 10 nM	1150 nM	> 2500 nM	1190 nM	Cc1cc(COc2cccc(-c3cc(NC4CC4)n4ncc(/C=C5\NC(=O)NC5=O)c4n3)c2)no1 [Example G4]
–	–	–	< 10 nM	435 nM	> 2500 nM	1840 nM	CN(C)CCNC(=O)c1cc(-c2cc(NC3CC3)n3ncc(/C=C4\NC(=O)NC4=O)c3n2)ccc1F [Example G5]
–	–	–	< 10 nM	11100 nM	> 2500 nM	15100 nM	O=C1NC(=O)/C(=C/c2cnn3c(NC4CC4)cc(Nc4ccc(Cl)cc4)nc23)N1 [Example I1]
–	–	–	< 100 nM	683 nM	> 2500 nM	1900 nM	CN(C)c1ccc(-c2cc(NC3CC3)n3ncc(/C=C4\NC(=O)NC4=O)c3n2)cc1 [Example I4]
–	–	–	< 100 nM	1080 nM	2450 nM	11000 nM	O=C1NC(=O)/C(=C/c2cnn3c(NC4CCNCC4)cc(Nc4cccc(Cl)c4)nc23)N1 [Example K5]
–	–	–	< 1000 nM	936 nM	317 nM	3160 nM	CC(O)CNc1cc(Nc2cccc(Cl)c2)nc2c(/C=C3\NC(=O)NC3=O)cnn12 (stereo not drawn) [Example K6]
–	–	–	< 10 nM	500 nM	> 2500 nM	1350 nM	O=C1NC(=O)/C(=C/c2cnn3c(NC4CC4)cc(Nc4ccc(F)cc4Cl)nc23)N1 [Example L1]
–	–	–	< 10 nM	1790 nM	1470 nM	725 nM	O=C1NC(=O)/C(=C/c2cnn3c(NC4CC4)cc(-c4ccc(O)cc4)nc23)N1 [Example L4]
–	–	–	< 10 nM	6680 nM	359 nM	4870 nM	CC(C)(C)CC(=O)Nc1cc(NC2CC2)n2ncc(/C=C3\NC(=O)NC3=O)c2n1 [Example M2]
–	–	–	< 10 nM	17100 nM	> 2500 nM	1230 nM	O=C1NC(=O)/C(=C/c2cnn3c(NC4CC4)cc(-c4ccnc(F)c4)nc23)N1 [Example O4]
–	–	–	< 100 nM	1120 nM	2410 nM	4260 nM	COC(=O)CN1CCC(Nc2cc(Nc3cccc(Cl)c3)nc3c(/C=C4\NC(=O)NC4=O)cnn23)CC1 [Example O5]
–	–	–	< 10 nM	1140 nM	> 2500 nM	> 30000 nM	O=C1NC(=O)/C(=C/c2cnn3c(NCC(F)(F)F)cc(Nc4cccc(Cl)c4)nc23)N1 [Example O6]
> 30000 nM	13.151%	> 30000 nM	< 10 nM	–	–	–	Cc1c(N2CCN(c3ccccn3)CC2)nc2c(C=C3NC(=O)NC3=O)cnn2c1NC1CC1 [Example Q46]
